Experimental data from patent publication US12435310B2, “Expansion culture method for human-derived natural killer cells by using HDAC inhibitor” (KOREA UNIVERSITY RESEARCH AND BUSINESS FOUNDATION, priority 2018, dated 2025).
Like-named read-outs stand apart in the source and are kept apart here.

Tests used:
NK cells [1] = details: cited from earlier work
NK cells [2] = details: Ogbomo et al., FEBS Letters 2007; cited from earlier work
natural killer cells [3] = test: CD107a expression and IFN-g secretion of natural killer cells, flow cytometry; assay type: cell-based, Human
Method: 2.5 μl of FITC-labeled anti-CD107a mAb was added to the cells, and Golgi stop (BD Pharmingen) was added, followed by culture at 37° C. for 5 hours. After completion of culture, PerCPp-labeled CD3 mAb (Biolgend Cat No. 344814 clone SK7) and APC-labeled CD56mAb (Biolegend Cat No. 362504 clone 5.1H11) were added to the cells and allowed to react at 4° C. for 20 minutes. For intracellular FACS, the cells were washed with FACS buffer, fixed, permeabilized using a BD Cytoperm/Cytofix kit (BD Pharmingen, San Diego, CA), stained with PE-labeled IFN-g mAb, and then analyzed by flow cytometry. As a positive control, natural killer cells treated with PMA/ionomycin were used.

natural killer cells [4] = test: Apoptosis by annexin V/7AAD staining, flow cytometry; assay type: cell-based, Human; details: NK cells expanded 10 days, treated, further cultured 8 days (FIG. 3)
Method: (§1) In the same manner as in Example 1, natural killer cells expanded ex vivo for 10 days were treated with an HDAC inhibitor and further cultured for 8 days. After harvesting the cells, 5×10^5 cells were obtained and apoptosis and proliferation thereof were measured using a flow cytometer.
(§2) To measure apoptosis, cells were harvested and stained with annexin V (2.5 μl) and 7AAD (2 μl) for 15 minutes, and then the proportion of the cells stained with annexin V/7AAD was analyzed using FACS Cantoll (BD). To measure cell proliferation, PerCP-labeled CD3 mAb (Biolgend Cat No. 344814 clone SK7) and APC-labeled CD56 mAb (Biolegend Cat No. 362504 clone 5.1H11) were added to the cells and allowed to react at 4° C. for 20 minutes. For intracellular FACS, the cells were washed with FACS buffer, and analyzed by staining Ki67 in the cell nucleus with the eBioscience Foxp3/transcription factor staining buffer set (eBioscience Cat No. 00-5523-00).

natural killer cells [5] = test: Cell counting during ex vivo expansion culture of natural killer cells (hematocytometer); assay type: cell-based, Human
Method: Human blood was collected, and then centrifuged using Ficoll (Ficoll-Paque™ PLUS, GE Healthcare) at 2500 rpm for 30 minutes, and peripheral blood mononuclear cells were isolated from the buffy coat. Thereafter, the isolated cells were co-cultured with the Jurkat cell line (Korea Cell Line Bank) and EBV-LCL cell line (Korea Cell Line Bank) (each cell line was irradiated with 100 Gy) at a peripheral blood mononuclear cell:Jurkat cell:EBV-LCL cell ratio of 1:0.5:0.5 in hRPMI medium (RPMI1640 medium (Corning) containing 10% FBS and 1% penicillin/streptomycin) in the presence of 500 U/ml of IL-2. During culture, the medium was replaced with hRPMI medium containing 500 U/ml of IL-2 once every 3 to 4 days.
In order to confirm the effect of an HDAC inhibitor on natural killer cells, the natural killer cells cultured for […] under the above-described conditions were treated with 125 nM of an HDAC inhibitor (SAHA, Sigma Aldrich, USA) once every 4 days, and the number of the cells was counted (FIG. 1A). At this time, the number of the cells was counted using a hematocytometer once every 4 days while the cells were further cultured for about 12 days, and during culture, the medium was replaced with hRPMI medium containing 500 U/ml of IL-2.

[6] = test system: K562 and A375 target cancer cells; test: Cancer cell killing ability of natural killer cells, chromium release; assay type: cell-based, Human; details: K562 and A375 targets, ratio 1:1, 4 hours, versus untreated control (FIG. 4A)
Method: In order to examine whether the cancer cell killing ability of the natural killer cells expanded ex vivo by the method of Example 1 changes, K562 (Korea Cell Line Bank) and A375 (Korea Cell Line Bank) cells were prepared as target cancer cells, labeled with chromium for 1 hour, mixed with natural killer cells at a ratio of 1:1, and then co-cultured 37° C. After 4 hours, the supernatant was taken and the isotope value thereof was analyzed using a gamma counter.

natural killer cells [7] = test: Cell proliferation by Ki67 staining, flow cytometry; assay type: cell-based, Human; details: NK cells expanded 10 days, treated, further cultured 8 days (FIG. 3)
Method: as §1, §2

## CCCC(CCC)C(=O)O [valproic acid]
NK cells [1]; Ogbomo et al., FEBS Letters 2007
  cancer cell killing ability of the NK cells: decreases
NK cells [2]
  proliferation of the NK cells: decreases

## O=C(CCCCCCC(=O)Nc1ccccc1)NO [vorinostat]
NK cells [1]; activated NK cells, Wang et al., Biol Blood Marrow Transplant 2012
  cancer cell killing ability of the NK cells: no change

## O=C(CCCCCCC(=O)Nc1ccccc1)NO [SAHA]
Natural killer cells [3]; co-cultured 10 days, then treated
  interferon-gamma secretion of the cells: did not change
Natural killer cells [3]; treated or not treated with the HDAC inhibitor (FIG. 4B)
  function of the natural killer cells: expression of CD107a and secretion of IFN-g: no change
Natural killer cells [4]
  apoptosis of the natural killer cells (annexin V/7AAD): inhibited
Natural killer cells [5]; NK cells cultured 6 days, then 125 nM once every 4 days, further culture about 12 days (FIG. 1B)
  number of cells compared with control group not treated with the HDAC inhibitor: more than double
Natural killer cells [5]; PBMC co-cultured with Jurkat and EBV-LCL cells for 10 days, then treated
  number of the natural killer cells compared to conventional culture method: increased
Natural killer cells [5]; concentration of 62.5 nM (FIG. 2B)
  proliferation of the NK cells by concentration: the highest
Natural killer cells [5]; treated at an initial stage without being cultured
  number of cells: no increase
Natural killer cells [5]; treated from co-culture day 6 (FIG. 2A)
  number of cells by timing of treatment: the highest
Natural killer cells [5]; treated on day 0 of culture compared to treated on day 10 of culture (FIG. 1C)
  proliferation of the NK cells (growth curve): decreased
[6]
  cancer cell killing ability of the natural killer cells: did not change
Natural killer cells [7]
  proliferation of the natural killer cells (Ki67): did not change
Natural killer cells [7]; listed as HDAC inhibitor
  proliferation of the natural killer cells (Ki67): no significant change
